Laboratory results taken from patent publication US6150126A, “Daphnia reproductive bioassay for testing toxicity of aqueous samples and presence of an endocrine disrupter” (Wisconsin Alumni Research Foundation, priority 1998, dated 2000).
Read-outs that look alike come from different tables or passages of the source.

Legend:
[1] = system: retinoid X receptors; details: cited from earlier work
[2] = system: Daphnia; details: in vivo; cited from earlier work
[3] = system: Daphnia; details: in vivo; cited from earlier work; remark: listed apart in the source
[4] = system: vertebrate systems; details: cited from earlier work
[5] = system: Daphnia galeata mendotae Wingra CDF-1 clone; details: in vivo
[6] = system: Daphnia galeata mendotae (CDF-1 clone); details: in vivo
[7] = system: Daphnia; details: in vivo; cited from earlier work; remark: listed apart in the source
[8] = system: Daphnia galeata-mendotae (clone CDF-1); details: in vivo
[9] = system: D. magna; details: daphnia, in vivo; cited from earlier work
[10] = system: D. magna; details: daphnia, in vivo, cited from earlier work
[11] = system: Daphnia; details: in vivo, 48 h
[12] = system: fish, mammals and birds; details: cited from earlier work
[13] = system: Daphnia; details: in vivo, cited from earlier work
[14] = system: Daphnia carinata; details: in vivo; cited from earlier work

In the case of `COC(C)(C)CCC[C@H](C)C/C=C/C(C)=C/C(=O)OC(C)C` (racemic) [methoprene], the “Gene transcription in mammals via retinoid X receptors” value [1] is listed as “can stimulate gene transcription in mammals by activating retinoid X receptors”.

For `ClC1=C(Cl)[C@]2(Cl)[C@@H]3[C@@H]4C[C@@H]([C@H]5O[C@@H]45)[C@@H]3[C@@]1(Cl)C2(Cl)Cl` [Dieldrin, dieldrin], the “Concentration below which little or no effect on population growth rate” value [2] is listed as “about 220 ppb”, the “Effect on sex ratio” value [3] is listed as “no effect of dieldrin on sex ratio” and the Estrogenicity [4] is listed as “weakly estrogenic”. For the same compound, the “Effect versus controls (sex ratio, males)” value [5] was “no difference”, the “Concentration of no effect on sex ratio / above which sex ratio is reduced” value ([6]; daphnia) was “about 30 ppb” and the “X intercept of regression line of sex ratio index vs log dieldrin” value ([6]; daphnia) was 31 ppb. For the same compound, the “Adult survival or clutch size, effect” value [6] was “Neither insecticide significantly affected adult survival or clutch size”, the Endocrine disruption activity [6] was “shows endocrine disruption activity in Daphnia” and the Morphological abnormalities [6] was “Neither insecticide caused morphological abnormalities”. For the same compound, the “Regression line, sex ratio index (Y) vs log ppb dieldrin (X)” value [6] was “Y=-0.0195X+0.299”.

In the case of nonylphenol, the Developmental deformity [7] is listed as “cause a characteristic deformity”, the “Live young with deformity” value [8] is listed as 11% and the “Population growth rate r” value [8] is listed as “nonlinear pattern”. The Survival [8] was “low survival”, the “No-observed effect concentration (NOEC)” value [9] was 24 μgL-L^-1 and the “Chronic LC50” value ([10]; 168 h) was 0.12 µg/mL. For the same compound, the “Chronic LC50” value ([10]; 336 h) was 0.12 µg/mL, the “Chronic LC50” value ([10]; 504 h) was 0.1 µg/mL and the Mortality [11] was 100%. The Estrogenicity [12] was “estrogenic to fish, mammals and birds”.

For `O=S1OCC2C(CO1)C1(Cl)C(Cl)=C(Cl)C2(Cl)C1(Cl)Cl` (stereo not drawn) [Endosulfan, endosulfan], the “Lowest concentration with reported morphological changes” value ([13]; daphnia) is listed as 0.1 μgL^-1, the “Concentration affecting Daphnia population growth” value [13] is listed as “about 120 ppb” and the “Concentration reducing filtration and assimilation rates” value [13] is listed as 440-600 ppb. The Estrogenicity [4] was “weakly estrogenic”, the “Concentrations reducing body length and weight, egg mass and brood size” value [14] was 40-160 ppb and the “Effect versus controls (sex ratio, males)” value [5] was “a tendency for a reduction of males”. The “Adult survival or clutch size, effect” value [6] was “Neither insecticide significantly affected adult survival or clutch size”, the Morphological abnormalities [6] was “Neither insecticide caused morphological abnormalities” and the “Sex ratio, effect” value [6] was “No endosulfan effect was observed”.
